Values quoted from earlier work in article PMC4424193 (European journal of drug metabolism and pharmacokinetics, 2014).
Where two headings read alike, the source gives them in different places. Blank lines part the entries; values can stand above or below the molecule they belong to.

Assays:
FAK = details: binding studies; ref Kurenova et al. 2013
[1] = rats, single intragastric 50 mg/kg in 2% starch suspension; ref Kaverina (1983)
[2] = man, single oral 50 mg dose, 24 hr urine collections; ref Chung (1994)
[3] = ref Dirikolu (2009); for Cmax: horse serum
[4] = rat, after 24 hrs; ref Yeh 1990
[5] = humans, ref Yeh et al. 1986; for Cmax: at 0.5 hrs post-dose
[6] = CD1 mice, 44.6 mg/kg IP C4 free base, ref Thudium 2011

- C4 to FAK dissociation constant (Kd) (FAK): 0.165 µg/mL
- Cmax [1]: 370 ng/mL
- T½ [1]: 14.9 h
- serum concentration at 24 hrs (mean) [1]: 160 ± 10 ng/mL
- plasma Cmax (mean) [6]: 820 ng/mL
- time of peak plasma concentration [6]: 0.67 h
- T½ (mice, 44.6 mg/kg free base IV dose, ref Thudium (2011)): 0.83 ± 0.34 h
- 24 hr concentration (mice, 44.6 mg/kg free base, ref Thudium (2011)): 0 µg/mL
- Bioavailability (mice, oral vs IP routes of administration, previously determined): 15.5%
- Cmax (mouse IV, ref Thudium (2011)): 820 ng/mL
Structure (SMILES): CN(C)CCN(Cc1ccc(Cl)cc1)c1ccccn1 [C4, N-[(4-chlorophenyl)-methyl]-N-[2-(dimethylamino)-ethyl]-pyridin-2-amine]

- Cmax ([3]; IV 300 mg/horse, at 5 minutes): 280 ng/mL
- Cmax ([3]; oral 300 mg/horse): 36.6 ng/mL
- half-life (t½) ([3]; horse, IV 300 mg/horse): 1.67 h
- detection in serum at 24 hrs ([3]; horse, either route of administration (IV, oral)): not detected
- Tmax ([3]; horse, oral 300 mg/horse): 0.44 h
Structure (SMILES): COc1ccc(CN(CCN(C)C)c2ccccn2)cc1 [Pyrilamine, pyrilamine]
- parent compound in urine [2]: no parent compound was observed in the urine

- dose recovered unchanged in urine [4]: 2-3%
- Cmax ([5]; 50 mg intramuscular): 105 ng/mL
- t½ ([5]; 50 mg intramuscular): 2.9 ± 0.25 h
- Cmax ([5]; 100 mg intramuscular): 194 ng/mL
- t½ ([5]; 100 mg intramuscular): 4.4 ± 1.3 h
Structure (SMILES): CN(C)CCN(Cc1ccccc1)c1ccccn1 [tripelennamine]
